Measurements: US11254651B2, “Histone methyltransferase inhibitors” (GLOBAL BLOOD THERAPEUTICS, INC., priority 2016, dated 2022)
Counter-ions that a name gives are not always drawn.

Target: T1, G9a (Homo sapiens, UniProt Q96KQ7)
T1 sequence (Q96KQ7 1-1210): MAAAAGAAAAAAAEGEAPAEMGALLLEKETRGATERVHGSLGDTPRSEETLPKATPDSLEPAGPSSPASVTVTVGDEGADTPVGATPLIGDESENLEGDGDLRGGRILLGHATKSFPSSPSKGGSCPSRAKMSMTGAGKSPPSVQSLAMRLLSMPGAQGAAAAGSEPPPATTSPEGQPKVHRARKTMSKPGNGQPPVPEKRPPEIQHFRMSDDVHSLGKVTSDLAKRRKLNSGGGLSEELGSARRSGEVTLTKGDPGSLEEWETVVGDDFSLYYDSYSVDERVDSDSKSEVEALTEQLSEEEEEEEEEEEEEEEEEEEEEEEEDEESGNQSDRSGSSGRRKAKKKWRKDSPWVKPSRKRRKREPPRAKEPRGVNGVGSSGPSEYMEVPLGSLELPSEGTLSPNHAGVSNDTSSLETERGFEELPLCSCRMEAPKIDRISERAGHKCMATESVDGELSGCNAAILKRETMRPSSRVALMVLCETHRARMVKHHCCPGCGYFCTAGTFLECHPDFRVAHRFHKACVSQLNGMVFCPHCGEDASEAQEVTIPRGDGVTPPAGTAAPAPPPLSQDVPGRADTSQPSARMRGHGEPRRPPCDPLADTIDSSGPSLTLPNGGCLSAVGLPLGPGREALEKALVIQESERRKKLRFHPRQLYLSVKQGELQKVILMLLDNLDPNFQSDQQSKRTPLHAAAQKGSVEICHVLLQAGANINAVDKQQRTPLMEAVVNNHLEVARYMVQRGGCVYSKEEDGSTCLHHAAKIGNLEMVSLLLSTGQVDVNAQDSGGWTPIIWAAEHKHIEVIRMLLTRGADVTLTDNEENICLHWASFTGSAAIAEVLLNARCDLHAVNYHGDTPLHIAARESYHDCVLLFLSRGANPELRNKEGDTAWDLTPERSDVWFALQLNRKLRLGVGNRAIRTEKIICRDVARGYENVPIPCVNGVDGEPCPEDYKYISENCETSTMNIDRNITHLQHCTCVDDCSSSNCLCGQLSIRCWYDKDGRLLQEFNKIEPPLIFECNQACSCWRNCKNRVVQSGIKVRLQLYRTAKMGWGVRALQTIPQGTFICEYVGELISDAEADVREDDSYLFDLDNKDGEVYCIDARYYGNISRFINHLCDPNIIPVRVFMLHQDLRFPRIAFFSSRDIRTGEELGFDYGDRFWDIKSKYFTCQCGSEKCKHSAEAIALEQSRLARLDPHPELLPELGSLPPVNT
Experiment: G9a AlphaLISA enzymatic activity assay
Type: biochemical
Conditions: 0.15 nM G9a, 15 uM S-adenosyl-methionine, 100 nM biotinylated histone 3 peptide (1-21), 1 hour room temperature
From the text: The G9a AlphaLISA assay was used to detect the methyl modifications of a biotinylated histone H3 peptide by the compounds. These modifications are done by the histone methyl transferase activity of the G9a enzyme. The assay consists of reading a chemiluminescent signal at 615 nm; this signal is generated by a laser excitation at 680 nm that transfers a reactive singlet oxygen between the donor beads and acceptor beads. Donor beads are streptavidin conjugated and bind to the biotin on the peptide. Acceptor beads are conjugated with an antibody that recognizes the specific G9a methyl mark on the peptide. If there is a methyl mark on the peptide, the acceptor beads will bind to the peptide. Upon binding, the acceptor beads will be in close proximity (<200 nm) of the donor beads and when the donor beads are excited, the transfer of the oxygen can occur and a strong signal will be generated. If there is no methyl mark, the interaction between beads will not occur and signal will be at background levels.
For the assay, the following buffer was used to set up reactions: 50 mM Tris-HCl pH9, 50 mM NaCl, 0.01% Tween-20 and 1 mM DTT (added fresh prior to starting the reactions). The assay is set up by adding a final concentration of 0.15 nM G9a, 15 uM S-adenosyl-methionine and, 100 nM biotinylated histone 3 peptide (1-21). The reaction is incubated at room temperature for 1 hour, and subsequently quenched by the addition of the acceptor beads (anti-H3k9me2 AlphaLISA acceptor beads, PerkinElmer #AL117) at a final concentration of 20 ug/mL. The acceptor beads are incubated for 1 hour. After 1 hour, the donor beads are added at a final concentration of 20 ug/mL (Alpha Streptavidin donor beads, PerkinElmer #6760002). Donor beads are incubated for 0.5 hours. Both donor and acceptor beads are resuspended in AlphaLISA 5X Epigenetics Buffer 1 Kit (PerkinElmer #AL008) prior to addition to the reaction. All manipulations and incubations with the donor and acceptor beads are done in subdued light. Signal is detected in an EnVision plate reader in Alpha mode (see ACS Med Chem Lett. 2014 Jan. 2; 5(2):205-9. doi: 10.1021/m1400496h. eCollection 2014. Discovery and development of potent and selective inhibitors of histone methyltransferase g9a.)
Percent inhibition was calculated for each compound dilution and the concentration that produced 50% inhibition was calculated. This value is presented as the IC50.

Row | Molecule | IC50 [nM]
1 | COC(=O)N1CC(CNc2c3c(nc4cc(OCCCN5CCCC5)c(OC)cc24)CCC3)C1 [Entry 71, methyl 3-[({7-methoxy-6-[3-(pyrrolidin-1-yl)propoxy]-1H,2H,3H-cyclopenta[b]quinolin-9-yl}amino)methyl]azetidine-1-carboxylate formate] | 17
2 | COc1cc2c(NC(C3CC3)C3CC3)c3c(nc2cc1OCCCN1CCCC1)CCC3 [Entry 65, N-(dicyclopropylmethyl)-7-methoxy-6-[3-(pyrrolidin-1-yl)propoxy]-1H,2H,3H-cyclopenta[b]quinolin-9-amine formate] | 7.7
3 | COc1cc2cc3c(nc2cc1OCCCN1CCCC1)CCCC3 [Entry 17, 7-methoxy-6-[3-(pyrrolidin-1-yl)propoxy]-1,2,3,4-tetrahydroacridine formate] | 510
4 | COc1cc2c(NCc3ccccn3)c3c(nc2cc1OCCCN1CCCC1)CCC3 [Entry 54, 7-methoxy-N-[pyridin-2-yl)methyl]-6-[3-(pyrrolidin-1-yl)propoxy]-1H,2H,3H-cyclopenta[b]quinolin-9-amine formate] | 60.1
5 | COc1cc2c(NC3CCC(=O)N(C)C3)c3c(nc2cc1OCCCN1CCCC1)CCC3 (stereo not shown) [Entry 58, 5-({7-methoxy-6-[3-(pyrrolidin-1-yl)propoxy]-1H,2H,3H-cyclopenta[b]quinolin-9-yl}amino)-1-methylpiperidin-2-one trifluoroacetate] | 46.4
6 | COc1cc2c(NCC(F)(F)F)c3c(nc2cc1OCCCN1CCCC1)CCC3 [Entry 50, 7-methoxy-6-[3-(pyrrolidin-1-yl)propoxy]-N-(2,2,2-trifluoroethyl)-1H,2H,3H-cyclopenta[b]quinolin-9-amine trifluoroacetate] | 26
7 | COc1cc2c(NCc3ccccc3)c3c(nc2cc1OCCCN1CCCC1)CCC3 [Entry 46, N-benzyl-7-methoxy-6-[3-(pyrrolidin-1-yl)propoxy]-1H,2H,3H-cyclopenta[b]quinolin-9-amine formate] | 36
8 | COc1cc2c(NC3CC3)c3c(nc2cc1OCCCN1CCCC1)CCC3 [Entry 31, N-cyclopropyl-7-methoxy-6-[3-(pyrrolidin-1-yl)propoxy]-1H,2H,3H-cyclopenta[b]quinolin-9-amine trifluoroacetate] | 17.5
9 | COc1cc2c(NC(C)C)c3cccc(F)c3nc2cc1OCCCN1CCCC1 [Entry 120, 5-fluoro-2-methoxy-N-(propan-2-yl)-3-[3-(pyrrolidin-1-yl)propoxy]acridin-9-amine formate] | 62
10 | COc1cc2c(Nc3ccn(C)n3)c3c(nc2cc1OCCCN1CCCC1)CCC3 [Entry 70, N-{7-methoxy-6-[3-(pyrrolidin-1-yl)propoxy]-1H,2H,3H-cyclopenta[b]quinolin-9-yl}-1-methyl-1H-pyrazol-3-amine formate] | 35.8
11 | COCCNc1c2c(nc3cc(OCCCN4CCCC4)c(OC)cc13)CCC2 [Entry 38, 7-methoxy-N-(2-methoxyethyl)-6-[3-(pyrrolidin-1-yl)propoxy]-1H,2H,3H-cyclopenta[b]quinolin-9-amine formate] | 16
12 | COc1cc2c(NCCO)c3c(nc2cc1OCCCN1CCCC1)CCC3 [Entry 34, 2-({7-methoxy-6-[3-(pyrrolidin-1-yl)propoxy]-1H,2H,3H-cyclopenta[b]quinolin-9-yl}amino)ethan-1-ol formate] | 7.6
13 | COc1cc2c(NC3CCOCC3)c3cc(C)ccc3nc2cc1OCCCN1CCCC1 [Entry 114, 2-methoxy-7-methyl-N-(oxan-4-yl)-3-[3-(pyrrolidin-1-yl)propoxy]acridin-9-amine formate] | 54.3
14 | 2-ethoxy-N-methyl-3-[3-(pyrrolidin-1-yl)propoxy]acridin-9-amine formate and 3-ethoxy-N-methyl-2-[3-(pyrrolidin-1-yl)propoxy]acridin-9-amine formate (1:1) [Entry 118] | 75.5
15 | COc1cc2c(Nc3ccccn3)c3c(nc2cc1OCCCN1CCCC1)CCC3 [Entry 40, N-{7-methoxy-6-[3-(pyrrolidin-1-yl)propoxy]-1H,2H,3H-cyclopenta[b]quinolin-9-yl}pyridin-2-amine formate] | 150

Further lines, results first:

Row | IC50 [nM] | Molecule
16 | 139 | CNc1c2ccccc2nc2cc(OCCCN3CCC(F)C3)c(OC)cc12 (stereo not shown) [Entry 117, 3-[3-(3-fluoropyrrolidin-1-yl)propoxy]-2-methoxy-N-methylacridin-9-amine formate]
17 | 64.2 | COc1cc2c(NC(C)C)c3cnccc3nc2cc1OCCCN1CCCC1 [Entry 121, 8-methoxy-N-(propan-2-yl)-7-[3-(pyrrolidin-1-yl)propoxy]benzo[b]1,6-naphthyridin-10-amine formate]
18 | 1.3 | CNc1c2ccccc2nc2cc(OCCCN3CCCC3)c(OC)cc12 [Entry 1, 2-methoxy-N-methyl-3-[3-(pyrrolidin-1-yl)propoxy]acridin-9-amine]
19 | 42 | COc1cc2c(O)c3ccccc3nc2cc1OCCCN1CCCC1 [Entry 6, 2-methoxy-3-[3-(pyrrolidin-1-yl)propoxy]acridin-9-ol formate]
20 | 4.4 | COc1cc2c(NC3CCOCC3)c3ccccc3nc2cc1OCCCN1CCCC1 [Entry 3, 2-methoxy-N-(oxan-4-yl)-3-[3-(pyrrolidin-1-yl)propoxy]-acridin-9-amine trifluoroacetate]
21 | 26.1 | CNc1c2ccccc2nc2cc(OCCCN3CCCC3)c(Cl)cc12 [Entry 9, 2-chloro-N-methyl-3-[3-(pyrrolidin-1-yl)propoxy]acridin-9-amine formate]
22 | 76 | CCN(CC)CCCOc1cc2nc3ccccc3c(NC)c2cc1OC [Entry 14, 3-[3-(diethylamino)propoxy]-2-methoxy-N-methylacridin-9-amine trifluoroacetate]
